Data on two molecules can be found in patent publication US12350268B2, “Pharmaceutical compositions of PROTAC compounds and uses thereof” (Shenzhen Pharmacin Co., Ltd., priority 2022, dated 2025).

Data set [1] is described as follows: PK of ARV-110 API, i.v. injection vs oral capsule, fasted beagle dogs (absolute oral bioavailability). It is filed as in vivo. The conditions noted are these: for AUC(0-inf) / AUC(0-t) / Cmax: fasted condition, geometric mean. The procedure:
The XRPD testing was performed on both API only (ARV-110) and the ASD formulation Batch No. P210803 using D2-Phasher (Bruker) equipment, and with the following parameters: generator, 30.0 kV/10.0 mA; detector, Lynxeye; wavelength, Cu Kal(1.54060); scan mode, continuous PSD fast; scan range, 4-40 degree; step Size, 0.01 degree; time/step, 0.5 s; sample stage rotation, 15 r/min. […] P210803 were in amorphous state. ARV-110 is still under developing in clinical stage. To measure the absolute oral bioavailability, the capsule filled with ARV-110 API was prepared only for oral administration in fasted condition. API was dissolved in DMA and Solutol mixed solution for injection. Three beagle dogs were tested in two dosing groups, one group was for oral, 50 mg dose per dog, and the other group for injection, 5 mg dose per dog. During the study, the dogs were allowed to drink water freely and were fasted for 12 hours before administration, all dogs were given food 4 hours after drug administration. Each dog was administered together with 50 ml water.
Blood samples were taken from each group of animals at the following time points: 0 h (before test drug administration), and 0.25, 0.5, 1, 1.5, 2, 4, 6, 8, 10, 24 h after the drug administration. ARV-110 plasma concentrations were analyzed by an LC-MS/MS method. The non-compartment model of software WinNonlin was used to calculate the pharmacokinetic parameters of each dog, Cmax, AUClast, and AUCinf. The geometric averages of each parameters were used for comparisons of the in vivo absorption under different dosing pretreatments.
The results shown in Table 3B include the geometric mean values as well as coefficient of variation (CV) of the pharmacokinetic parameters of the two dosing groups. […] The absolute bioavailability of ARV-110 is about 6.0%.

The nature of data set [2]: PK of ARV-110 API capsules, fasted vs high-fat fed beagle dogs. It is filed as in vivo. Conditions: API capsules 45 mg oral; for AUC(0-inf) / AUC(0-t) / Cmax: beagle, dog, in vivo, po, 45 mg, geometric mean. The procedure: Then, the capsule filled with ARV-110 API was prepared to compare the absorption advantage of our ASD formulation. Each capsule contained 45 mg ARV-110 API. The capsules were tested orally in three beagle dogs under two different dosing pretreatments (with or without high-fat food). During the study, the dogs were allowed to drink water freely and were fasted for 12 hours before administration, for the dosing pretreatment of the fasted condition, all dogs were given food 4 hours after drug administration. Each dog was administered together with 50 ml water. For the dosing pretreatment of the fed condition, all dogs were given a high-fat food 30 minutes prior to dosing.
Blood samples were taken from each group of animals at the following time points: 0 h (before test drug administration), and 0.5, 1, 1.5, 2, 3, 4, 5, 6, 8, 10, 12, 24, 48, 72 h after the drug administration. ARV-110 plasma concentrations were analyzed by an LC-MS/MS method. The non-compartment model of software WinNonlin was used to calculate the pharmacokinetic parameters of each dog, Cmax, AUClast and AUCinf. The geometric averages of each parameters were used for comparisons of the in vivo absorption under different doing pretreatments.
The results shown in Table 3C include the geometric mean values as well as coefficient of variation (CV) of the pharmacokinetic parameters of two dosing groups. […] The high-fat fed condition can enhance the oral absorption by about 6-folds compared to fasted condition.

Data set [3] can be described thus: Three-way crossover PK of ARV-110 API and ASD compositions, fed beagle dogs. The conditions noted are these: in vivo, 50 mg API per dog oral, fed condition, geometric mean.
Procedure: The capsules were given at the dose of 50 mg API per dog for oral administration for each group in fed condition.
The conditions of data set [4]: cited from earlier work.
For data set [5] the following is noted: Table 1, footnote 1: Heimbach et al., J Pharm Sci 108 (2019); cited from earlier work.
A short description of data set [6]: PK of ARV-471 API, oral fasted and fed and i.v., beagle dogs. It is filed as in vivo. The conditions noted are these: for AUC(0-inf) / AUC(0-t) / Cmax: geometric mean. The procedure: (§1) To investigate the oral absorption of ARV-110, two-way crossover or three-way crossover designs were performed. Six Beagle dogs were classified into two or three groups. Each group was administered capsules of different formulations comprising the API or API only at various dose to compare the API absorption in such formulations and also any difference in API absorption in fasted or fed conditions. Each dog was administered with 50 mL water in total. To measure the absolute bioavailability, i.v. injection of a solution comprising API was also performed. The API solution for i.v. injection was prepared by dissolving in DMA and Solutol mixed solution.
(§2) In fasted condition, the dogs were allowed to drink water freely and were fasted for 12 hours before administration, and then were given food 4 hours after drug administration.
(§3) In fed condition, the dogs were fed with high-fat food 30 mins before administration, according to the FDA guidance entitled “Assessing the effects of food on drug in INDs and NDAs-Clinical pharmacology considerations” published on Feb. 26, 2019.
(§4) Blood samples were taken from each group of animals at the different time points after the drug administration. Plasma concentrations were analyzed by an LC-MS/MS method. The non-compartment model of software WinNonlin was used to calculate the pharmacokinetic parameters of each dog, Cmax, AUClast and AUCinf. The geometric averages of each parameters were used for comparisons of the in vivo absorption under different doing pretreatments.
(§5) To investigate the oral absorption of ARV-471, the same study design and procedures as described in Example 3 were performed.
A three-dog, two-way crossover study was performed to evaluate oral bioavailability of ARV-471 API in beagle dogs in fasted and fed condition. A three-dog study was performed to measure the ARV-471 API bioavailability after i.v. injection in fasted condition. Each capsule was filled with 60 mg of API powder and a 6 mg/vial API solution was prepared. One capsule or one vial of API solution were administered to each dog according to the design of the two studies. The results shown in Table 5B include the geometric mean values as well as coefficient of variation (CV) of the pharmacokinetic parameters of the three dosing groups. […] The absolute bioavailability of ARV-471 API is about 7%, and high-fat food can enhance the oral absorption by 2 times.

Data set [7] in a line: Three-way crossover PK of ARV-471 API and ASD compositions, fed beagle dogs. It is filed as in vivo. Conditions: dog, plasma, 60 mg of API oral, fed condition, geometric mean. The procedure: as §1, §3, §4, §5
A six-dog, three-way crossover study was performed to evaluate oral bioavailability of ARV-471 API and ASD compositions in beagle dogs in fed condition. There were three study groups, ARV471 API administered in fed condition ASD composition batch no. P220215-1 administered in fed condition, and ASD composition batch no. P220215-2 administered in fed condition, each containing 2 dogs. Capsules were filled with API powder, ASD composition from batch no. P220215-1 and ASD composition from batch no. P220215-2, respectively. […]

Data set [8] is described as follows: PK of ARV-471 API high dose, fasted vs fed beagle dogs. It is filed as in vivo. Conditions: for AUC(0-inf) / AUC(0-t) / Cmax: beagle, dog, plasma, po, 200 mg, API capsule 200 mg oral, geometric mean. The procedure:
as §1, §2, §3, §4, §5
A six-dog, two-way crossover study was performed to evaluate oral bioavailability of ARV-471 API dose escalation in beagle dogs in fasted and fed condition. There were two study groups, ARV-471 API orally administered in fasted condition and in fed condition, 200 mg of ARV-471 API was filled in each capsule. The capsules were given at the dose of 200 mg API per dog for oral administration for each group. The results shown in Table 5F include the geometric mean values as well as coefficient of variation (CV) of the pharmacokinetic parameters of two dosing groups.

[9] abbreviates: beagle, in vivo, iv, I.V. injection 5 mg per dog.
Where [10] appears, read: beagle, in vivo, API oral capsule 50 mg per dog.
[11] abbreviates: beagle, dog, plasma, iv, 6 mg, i.v. 6 mg, fasted condition.
Setting [12] is: beagle, dog, plasma, po, 60 mg, API capsule oral 60 mg, fasted condition.
[13] abbreviates: beagle, dog, plasma, po, 60 mg, API capsule oral 60 mg, fed condition.

Structures are written as SMILES.

In general, bioavailability refers to dose-corrected exposure relative to a reference, in per cent. By AUC(0-inf) is commonly meant total exposure, with the tail of the curve extrapolated. Lower therefore signals less exposure. In general, AUC(0-t) refers to the area under the concentration-time curve up to a stated or last time point. Lower therefore signals low exposure. The term Cmax denotes the highest concentration seen after dosing. Turning to `N#Cc1ccc(O[C@H]2CC[C@H](NC(=O)c3ccc(N4CCC(CN5CCN(c6cc7c(cc6F)C(=O)N(C6CCC(=O)NC6=O)C7=O)CC5)CC4)nn3)CC2)cc1Cl` (some centres unmarked) [ARV-110, N-((1r,4r)-4-(3-chloro-4-cyanophenoxy)cyclohexyl)-6-(4-((4-(2-(2,6-dioxopiperidin-3-yl)-6-fluoro-1,3-dioxoisoindolin-S-yl)piperazin-1-yl)methyl)piperidin-1-yl)pyridazine-3-carboxamide], in data set [1] (amorphous API, oral 50 mg, fasted dogs), the “oral absorption (in words)” value is reported as “poor absorption in fasted condition”. Also, the bioavailability in data set [1] (beagle, dog, in vivo, 50 mg per dog, oral 50 mg vs i.v. 5 mg, fasted dogs) is ~6%. Besides, the AUC(0-inf) in data set [1] (setting [9]) was 866 ng·h/mL; in data set [1] (setting [10]) it was 279 ng·h/mL; in data set [2] (fasted condition), 278 ng·h/mL; in data set [2] (fed condition (high-fat food)), 1550 ng·h/mL; in data set [3], 3000 ng·h/mL. The AUC(0-t) is 588 ng·h/mL in data set [1] (setting [9]); 162 ng·h/mL in data set [1] (setting [10]); 218 ng·h/mL in data set [2] (fasted condition); 1410 ng·h/mL in data set [2] (fed condition (high-fat food)); 2570 ng·h/mL in data set [3]. For the same molecule, the Cmax in data set [1] (setting [9]) is 575 ng/mL; in data set [1] (setting [10]), 10.7 ng/mL; in data set [2] (fasted condition), 7.6 ng/mL; in data set [2] (fed condition (high-fat food)), 56.5 ng/mL; in data set [3], 80.3 ng/mL. In addition, the “enhancement of oral absorption, high-fat fed vs fasted condition” value in data set [2] is reported as “about 6 folds”. Besides, in data set [2] (fed vs fasted), the “food effect (in words)” value is “significant food effect”. Also, the “dissolution in the aqueous solution (in words)” value in data set [4] is “very hard to dissolve in the aqueous solution”. Also, in data set [5], the “Calculated log P” value is recorded as 5.8^1.
Take `O=C1CC[C@H](N2Cc3cc(N4CCN(CC5CCN(c6ccc([C@@H]7c8ccc(O)cc8CC[C@@H]7c7ccccc7)cc6)CC5)CC4)ccc3C2=O)C(=O)N1` [ARV-471, (3S)-3-[5-[4-[[1-[4-[(1R,2S)-6-hydroxy-2-phenyl-tetralin-1-yl]phenyl]-4-piperidyl]methyl]piperazin-1-yl]-1-oxo-isoindolin-2-yl]piperidine-2,6-dione]: the “enhancement of oral absorption by high-fat food” value in data set [6] (API oral 60 mg, fed vs fasted) is 2 times. Further, in data set [6] (amorphous API oral 60 mg, fasted dogs), the “oral absorption (in words)” value is reported as “poor absorption in fasted condition”. Further, the AUC(0-inf) is 3220 ng·h/mL in data set [6] (setting [11]); 2480 ng·h/mL in data set [6] (setting [12]); 5230 ng·h/mL in data set [6] (setting [13]); 5840 ng·h/mL in data set [7]; 7650 ng·h/mL in data set [8] (fasted condition); 15600 ng·h/mL in data set [8] (fed condition). The exposure AUC(0-t) in data set [6] (setting [11]) worked out at 3120 ng·h/mL; in data set [6] (setting [12]), 2360 ng·h/mL; in data set [6] (setting [13]) it was 5020 ng·h/mL; in data set [7], 5600 ng·h/mL; in data set [8] (fasted condition) it was 7140 ng·h/mL; in data set [8] (fed condition) it was 14700 ng·h/mL. In addition, the peak concentration (Cmax) in data set [6] (setting [11]) is 609 ng/mL; in data set [6] (setting [12]), 200 ng/mL; in data set [6] (setting [13]), 428 ng/mL; in data set [7], 381 ng/mL; in data set [8] (fasted condition), 415 ng/mL; in data set [8] (fed condition) it was 860 ng/mL. Also, the bioavailability in data set [6] (beagle, dog, plasma, oral 60 mg vs i.v. 6 mg, fasted dogs, read-out: absolute bioavailability) was ~7%. Also, in data set [8] (API 200 mg oral), the “enhancement of oral absorption by high-fat food vs fasted condition” value was determined as 2 times. In addition, the “dissolution in the aqueous solution (in words)” value in data set [4] is “very hard to dissolve in the aqueous solution”.
